In BindingDB's records for doi:10.1016/j.bmcl.2016.06.017 (University of Pittsburgh, 2016):

Legend:
[1] = biological target: T1, Signal transducer and activator of transcription 1-alpha/beta (Homo sapiens, UniProt P42224); assay: Inhibition of IFNgamma-induced STAT1 (unknown origin)
T1 sequence (P42224 whole entry): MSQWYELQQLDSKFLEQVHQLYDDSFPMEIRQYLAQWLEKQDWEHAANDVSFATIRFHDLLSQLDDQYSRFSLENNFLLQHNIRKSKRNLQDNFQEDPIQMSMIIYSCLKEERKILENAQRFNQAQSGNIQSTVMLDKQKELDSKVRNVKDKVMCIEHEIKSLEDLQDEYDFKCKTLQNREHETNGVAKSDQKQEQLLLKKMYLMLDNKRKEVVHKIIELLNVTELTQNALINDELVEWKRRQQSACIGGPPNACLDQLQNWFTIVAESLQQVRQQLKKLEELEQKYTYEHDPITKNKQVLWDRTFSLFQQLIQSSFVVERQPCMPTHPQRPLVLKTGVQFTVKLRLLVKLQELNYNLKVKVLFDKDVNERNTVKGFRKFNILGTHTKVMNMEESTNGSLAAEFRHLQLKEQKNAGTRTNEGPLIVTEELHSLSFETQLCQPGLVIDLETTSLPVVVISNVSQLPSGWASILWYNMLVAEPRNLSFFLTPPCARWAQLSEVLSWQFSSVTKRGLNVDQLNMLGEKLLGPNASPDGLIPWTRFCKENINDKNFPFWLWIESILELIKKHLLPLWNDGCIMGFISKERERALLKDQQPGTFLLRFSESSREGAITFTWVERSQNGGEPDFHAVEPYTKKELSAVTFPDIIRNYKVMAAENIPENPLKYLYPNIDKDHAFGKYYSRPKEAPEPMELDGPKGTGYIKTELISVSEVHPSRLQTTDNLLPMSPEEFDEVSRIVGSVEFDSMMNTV

[2] = Inhibition of IL6-induced STAT3 in human CAL33 cells

SMILES	IC50 [1]	IC50 [2]
COc1ccc(C2=Nn3c(nnc3-c3[nH]nc4c3CCC4)SC2C(C)C)cc1 (stereo not drawn)	> 50 µM	–
Clc1ccc(C2=Nn3c(nnc3-c3cc(-c4ccccc4)n[nH]3)SC2)cc1Cl	> 50 µM	–
c1ccc(C2=Nn3c(nnc3-c3[nH]nc4c3CCC4)SC2)cc1	> 50 µM	–
Clc1ccc(C2=Nn3c(nnc3-c3cc(-c4ccccc4)n[nH]3)SC2)s1	> 50 µM	> 50 µM
CC1(C)Sc2nnc(-c3[nH]nc4c3CCC4)n2N=C1c1ccc(Cl)c(Cl)c1	> 50 µM	–
COc1ccc(C2=Nn3c(nnc3-c3[nH]nc4c3CCC4)SC2C)cc1 (stereo not drawn)	> 50 µM	–
CC1=Nn2c(nnc2-c2[nH]nc3c2CCC3)SC1	> 50 µM	> 50 µM
CC1Sc2nnc(-c3[nH]nc4c3CCC4)n2N=C1c1ccc(Cl)c(Cl)c1 (stereo not drawn)	> 50 µM	–
c1ccc(-c2cc(-c3nnc4n3N=C(c3ccncc3)CS4)[nH]n2)cc1	> 50 µM	> 50 µM
COc1ccc(C2=Nn3c(nnc3-c3cc(-c4ccc(F)cc4)n[nH]3)SC2C)cc1 (stereo not drawn)	> 30 µM	–
c1cc(C2=Nn3c(nnc3-c3[nH]nc4c3CCC4)SC2)ccn1	> 50 µM	> 50 µM
C1CCC(C2=Nn3c(nnc3-c3[nH]nc4c3CCC4)SC2)CC1	> 50 µM	> 30 µM
CC1=Nn2c(nnc2-c2cc(-c3ccccc3)[nH]n2)SC1	> 50 µM	> 50 µM
c1ccc(C2=Nn3c(nnc3-c3cc(-c4ccccc4)[nH]n3)SC2)cc1	> 50 µM	–
COc1ccc(C2CSc3nnc(-c4[nH]nc5c4CCC5)n3N2)cc1 (stereo not drawn)	–	> 50 µM
C1=Nn2c(nnc2-c2cc(-c3ccccc3)n[nH]2)SC1	> 50 µM	> 50 µM
Fc1ccc(-c2cc(-c3nnc4n3N=C(c3ccc(Cl)c(Cl)c3)CS4)[nH]n2)cc1	–	7.5 µM

SMILES	IC50 [1]	IC50 [2]
Clc1ccc(C2=Nn3c(nnc3-c3[nH]nc4c3CCC4)SC2)s1	> 50 µM	–
Clc1ccc(-c2cc(-c3nnc4n3N=C(c3ccc(Cl)c(Cl)c3)CS4)[nH]n2)cc1	–	14.5 µM
CC(C)CC1Sc2nnc(-c3[nH]nc4c3CCC4)n2N=C1c1ccc(Cl)c(Cl)c1 (stereo not drawn)	> 50 µM	–
COc1ccc(C2=Nn3c(nnc3-c3cc(-c4ccccc4)n[nH]3)SC2)cc1	> 50 µM	3.7 µM
Clc1ccc(C2=Nn3c(nnc3-c3[nH]nc4c3CCC4)SC2)cc1Cl	> 50 µM	–
Clc1ccc(C2=Nn3c(nnc3-c3[nH]nc4c3CCC4)SC2Cc2ccccc2)cc1Cl (stereo not drawn)	> 50 µM	–
CC(C)C1Sc2nnc(-c3[nH]nc4c3CCC4)n2N=C1c1ccc(Cl)c(Cl)c1 (stereo not drawn)	> 50 µM	–
COc1ccc(C2CSc3nnc(-c4cc(-c5ccccc5)n[nH]4)n3N2C(C)=O)cc1 (stereo not drawn)	–	> 50 µM
COc1ccc(C2=Nn3c(nnc3-c3cc(-c4ccccc4)n[nH]3)SC2CC(C)C)cc1 (stereo not drawn)	> 50 µM	–
Clc1cccc(C2=Nn3c(nnc3-c3[nH]nc4c3CCC4)SC2)c1	> 50 µM	–
Clc1ccc(C2=Nn3c(nnc3-c3[nH]nc4c3CCCC4)SC2)cc1Cl	–	15.5 µM
CC1Sc2nnc(-c3cc(-c4ccc(F)cc4)n[nH]3)n2N=C1c1ccccc1 (stereo not drawn)	> 30 µM	–
Clc1ccc(C2=Nn3c(nnc3-c3cc(-c4ccccc4)[nH]n3)SC2)cc1 [MLS000558549]	> 50 µM	–
C1=Nn2c(nnc2-c2[nH]nc3c2CCC3)SC1	> 50 µM	> 50 µM
c1ccc(-c2cc(-c3nnc4n3N=C(C3CCCCC3)CS4)[nH]n2)cc1	> 50 µM	> 50 µM
Clc1ccc(C2=Nn3c(nnc3-c3[nH]nc4c3CCC4)SC2)cc1	> 50 µM	–
